Experimental findings from PMC4896225 (Journal of immunology (Baltimore, Md. : 1950), 2016) are described below.

By IC50 is commonly meant the concentration at which inhibition is half-maximal. High values mean a need for much substance, low ones inhibition by little substance.

SMILES strings stand for the structures.

The target of this assay is gp96 (Canis lupus, UniProt P41148). In words: gamma-32P ATP ATPase assay with purified gp96. In kind it is biochemical.
gp96, sequence (P41148 22-804): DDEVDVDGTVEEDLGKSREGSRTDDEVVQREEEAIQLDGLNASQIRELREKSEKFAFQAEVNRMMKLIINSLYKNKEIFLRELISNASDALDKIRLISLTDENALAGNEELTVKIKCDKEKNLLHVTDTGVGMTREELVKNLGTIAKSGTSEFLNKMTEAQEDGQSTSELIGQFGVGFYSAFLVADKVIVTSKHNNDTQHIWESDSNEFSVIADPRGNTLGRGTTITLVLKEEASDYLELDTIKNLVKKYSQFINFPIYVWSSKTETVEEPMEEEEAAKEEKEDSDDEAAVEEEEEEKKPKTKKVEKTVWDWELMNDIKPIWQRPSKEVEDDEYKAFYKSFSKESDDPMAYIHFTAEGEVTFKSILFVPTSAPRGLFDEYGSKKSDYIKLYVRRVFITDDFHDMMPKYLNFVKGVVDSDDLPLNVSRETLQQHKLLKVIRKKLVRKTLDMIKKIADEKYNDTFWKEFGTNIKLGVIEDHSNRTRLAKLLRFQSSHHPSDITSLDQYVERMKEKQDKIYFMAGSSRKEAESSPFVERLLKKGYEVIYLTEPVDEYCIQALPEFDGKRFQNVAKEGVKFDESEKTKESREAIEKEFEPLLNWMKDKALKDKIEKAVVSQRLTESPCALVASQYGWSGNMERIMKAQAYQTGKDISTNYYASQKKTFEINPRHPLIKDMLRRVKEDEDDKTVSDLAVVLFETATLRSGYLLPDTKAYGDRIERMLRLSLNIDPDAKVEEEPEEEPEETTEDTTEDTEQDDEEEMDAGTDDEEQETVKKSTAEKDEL

In the case of `C/C(=N\NC(=N)N)c1cc(NC(=O)CCCCCCCCC(=O)Nc2cc(/C(C)=N/NC(=N)N)cc(/C(C)=N/NC(=N)N)c2)cc(/C(C)=N/NC(=N)N)c1` [Semapimod, N, N’-bis [3,5-diacetylphenyl] decanediamide tetrakis [amidinohydrazone]], the IC50 was about 0.3 µM.
